In patent publication US20150164907A1, “COMPOSITIONS AND METHODS FOR TREATING DISEASE” (ANGION BIOMEDICA CORP., priority 2013, published 2015):
Read-outs that look alike come from different tables or passages of the source.

System: SK-BR-3 breast cancer cells
Test: Proliferation of SK-BR-3 breast cancer cells, checkerboard design, Cell Titer Glo after 7 days
Format: cell-based
Settings: for IC50: Homo sapiens
Description: The effect of ATRA in combination with GDC-0941 or NVP-BEZ235 on the proliferation of SK-BR-3 breast cancer cells was evaluated. […] To test the combination of ATRA and PI3Km/TOR inhibitors, cells were plated in a 96-well plate and treated with compounds in a “checkerboard” design. After 7 days the cell proliferation was determined using the Cell Titer Glo reagent (Promega). […] The bliss additivity model predicts the shape of the curve and magnitude of growth inhibition if the effects of two compounds is additive.
Another method to determine the interaction between two compounds is the combination index (CI) method, which can be calculated by the computer program Calcusyn.

[1] = SK-BR-3, 168 h, in the absence of ATRA, 7 days, read-out: estimated IC50, proliferation of SK-BR-3 growth
[2] = SK-BR-3, 168 h, in the presence of 10 nM ATRA, 7 days, read-out: IC50, proliferation of SK-BR-3 cells

Cn1c(=O)n(-c2ccc(C(C)(C)C#N)cc2)c2c3cc(-c4cnc5ccccc5c4)ccc3ncc21 [NVP-BEZ235]
IC50 [1]: 145 nM
IC50 [2]: 57 nM

CC1=C(/C=C/C(C)=C/C=C/C(C)=C/C(=O)O)C(C)(C)CCC1 [ATRA, all-trans retinoic acid]
inhibition of cell proliferation by ATRA by itself (10 nM ATRA alone): only mildly inhibited cell proliferation
IC50 (SK-BR-3, ATRA alone, read-out: estimated IC50, proliferation of SK-BR-3 cells): 40 nM

CS(=O)(=O)N1CCN(Cc2cc3nc(-c4cccc5[nH]ncc45)nc(N4CCOCC4)c3s2)CC1 [GDC-0941, 2-(1H-indazol-4-yl)-6-(4-methanesulfonyl-piperazin-1-ylmethyl)-4-morpholin-4-yl-thieno[3,2-d]pyrimidine]
IC50 [1]: 126 nM
IC50 [2]: 35 nM
